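Interpolation was linear, between the two tested concentrations surrounding the appropriate level; five concentrations were tested over 48 hours in 96-well plates. Here, GI50 denotes the concentration required for 50% inhibition of growth. TGI: total growth inhibition.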
Tests used:
Test in all cases: DTP human tumour cell line panel, 48 h
OVCAR-5 ovarian = system: OVCAR-5 ovarian
SK-OV-3 ovarian = system: SK-OV-3 ovarian
LOX IMVI melanoma = system: LOX IMVI melanoma
OVCAR-8 ovarian = system: OVCAR-8 ovarian
HCC-2998 colon = system: HCC-2998 colon
ACHN renal = system: ACHN renal
IGROV1 ovarian = system: IGROV1 ovarian
A549 NSCLC = system: A549 NSCLC
786-0 renal = system: 786-0 renal
SR leukemia = system: SR leukemia

Row | Structure (SMILES) | GI50 (OVCAR-5 ovarian) [µM] | TGI (OVCAR-5 ovarian) [µM] | GI50 (SK-OV-3 ovarian) [µM] | TGI (SK-OV-3 ovarian) [µM] | GI50 (LOX IMVI melanoma) [µM] | TGI (LOX IMVI melanoma) [µM] | GI50 (OVCAR-8 ovarian) [µM] | TGI (OVCAR-8 ovarian) [µM] | GI50 (HCC-2998 colon) [µM] | TGI (HCC-2998 colon) [µM] | GI50 (ACHN renal) [µM] | TGI (ACHN renal) [µM] | GI50 (IGROV1 ovarian) [µM] | TGI (IGROV1 ovarian) [µM] | GI50 (A549 NSCLC) [µM] | TGI (A549 NSCLC) [µM] | GI50 (786-0 renal) [µM] | TGI (786-0 renal) [µM] | GI50 (SR leukemia) [µM] | TGI (SR leukemia) [µM]
1 | COc1cc2c(cc1OC)C(CCc1ccc(Cl)cc1)N(C)CC2 (stereo not given) | 19.6 | 61.7 | 32.2 | > 100 | 15 | 30.8 | 32.6 | > 100 | 16.4 | 31.1 | 25.7 | 92 | 36.9 | > 100 | 45.2 | > 100 | 17.4 | 48.9 | 28.4 | 63.4
2 | O=c1[nH]c(=S)[nH]c2c1sc(=S)n2-c1ccccc1 |  | > 100 |  | > 100 |  | > 100 |  | > 100 |  | > 100 |  | > 100 |  | > 100 |  | > 100 |  | > 100 |  | > 100
3 | CCCOc1ccc(/C(Cl)=C(\C=O)c2ccc(OC)c(OC)c2)cc1OCCC |  | > 100 |  | > 100 |  | 25.8 |  | > 100 |  | 15.4 |  | > 100 |  | > 100 |  | > 100 |  | > 100 |  | 12
4 | Cc1cccc(CN(C)c2ccc(CO)c(Cl)c2)c1 | 0.881 | 4.87 | 12.6 | 46.8 | 18 | 40.4 | 16.1 | > 79.5 | 15.9 | 52.9 | 32.7 | > 100 | 0.475 | 2.67 | 4.58 | 34.4 | 13.2 | 34.1 | 24.7 | > 73.8
5 | C=C1C(=O)OC2CCCCC3OC3C12 (stereo not given) |  | 32.3 |  | 32 |  | 31.9 |  | 32.4 |  | 23.9 |  | 23 |  | 33.4 |  | 40.2 |  | 19.8 |  | 53.1
6 | O=C1NC(=NCC(CO)c2ccccc2)S/C1=C\c1ccc2ncccc2c1 (stereo not given) | > 25 | > 25 | > 25 | > 25 | 17.4 | > 25 | > 25 | > 25 | 24.6 | > 25 | 24.4 | > 25 | 19 | > 25 | 16.2 | > 25 | > 25 | > 25 | 4.49 | > 22.7
7 | COc1cc2c(cc1OCCCCNC(=O)c1cc3ccccc3[nH]1)N=CC1CCCN1C2=O (stereo not given) | 22.9 | > 100 | 29.9 | 83.6 | 8.96 | 63.8 | 16.7 | 78.9 | 16.6 | 45.1 | 22.6 | > 100 | 18.1 | > 100 | 28.3 | > 100 | 33.5 | > 100 | > 100 | > 100
8 | COc1ccc(CN2c3ccccc3Sc3ccccc32)cc1F | > 30.4 | > 100 | 0.559 | > 100 | 0.798 | > 100 | 0.712 | > 100 | 1.11 | > 35.8 | 1.25 | > 100 | 1.45 | > 100 | 0.675 | > 100 | 0.615 | > 100 | 0.36 | > 42.7
9 | CCOP(=O)(CCP(=O)(OCC)OCC)OCC.C[CH2][Sn]([Cl])([Cl])[CH2]C | 72 | > 100 | 99.3 | > 100 | 22 | 47.9 | > 100 | > 100 | > 69.4 | > 100 | 36.7 | 57.1 | > 100 | > 100 | > 100 | > 100 | 21.7 | 50.2 | 38.2 | > 100
10 | C[N+](C)(C)CCOP(=O)(O)OP(=O)([O-])OCC1CCC(n2ccc(N)nc2=O)O1 (stereo not given) |  | > 100 |  | > 100 |  | > 100 |  | > 100 |  | > 100 |  | > 100 |  | > 100 |  | > 100 |  | > 100 |  | > 100
11 | Cc1c2ccccc2c(C)c2c3c(ccc12)C(=O)C=CC3=O |  | > 100 |  | > 100 |  | > 63.4 |  | 28.7 |  | > 100 |  | 33.3 |  | 55.5 |  | > 100 |  | > 62.2 |  | 25.2
12 | CC(C)=CC/C=C(/C)[C@H]1CC[C@]2(C)[C@@H]1CC[C@@H]1[C@@]3(C)CCC(=O)NC(C)(C)[C@@H]3CC[C@]12C | 19.3 | 39.5 | 47.7 | > 100 | 17.9 | 32.4 | 26 | 76.7 | 20.2 | 35.8 | 20 | 43 | 10.6 | 26.5 | 30.2 | > 100 | 19.8 | 37.5 | 17.4 | 51.8
13 | CCN1CCC[C@H]1c1cc(O)c2c(c1OC)C[C@H]1C[C@H]3[C@H](N)C(=O)C(C(N)=O)=C(O)[C@@]3(O)C(=O)C1=C2O | 0.187 | 4.12 | 0.032 | 0.215 | 0.0386 | 1.23 | 0.0587 | 3.01 | 0.118 | 3.01 | 0.0517 | 0.802 | 0.0419 | 4.95 | 0.207 | 8.72 | 0.0504 | 2.19 | 0.0436 | 0.94
14 | Fc1ccc(-c2nc(-c3nc4ccc(Cl)cc4[nH]3)cc3c2[nH]c2ccccc23)cc1 | 6.13 | 22.1 | 7.43 | 24.6 | 2.41 | 6.63 | 2.88 | 10.7 | 5.56 | 20.2 | 3.06 | 13.7 | 2.89 | 12.2 | 2.89 | 12.3 | 5.71 | 18.7 | 3.71 | > 100
